System: 883617-216-R-J1-PDC complex spheroids, growth, % test/control
Assay: Anticancer human tumor 883617-216-R-J1-PDC patient-derived bladder carcinoma cell line growth inhibition [AhR]
Details: for IC50: curve of first compound; for viability, T/C: stronger effect = lower value
Summary of the method: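 Complex tumor spheroids co-cultured with HUVEC and human MSC stroma; AhR antagonists tested in combination with standard-of-care and investigational agents. Top concentration at or near clinical Cmax (else 10 microM), half-log dilutions; growth expressed as percent test/control.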

[1] = second compound 0.1 µM, first compound 0.0316 µM
[2] = second compound 0.1 µM, first compound 0.1 µM
[3] = second compound 0.1 µM, first compound 0.316 µM
[4] = second compound 0.1 µM, first compound 1 µM
[5] = second compound 0.1 µM, first compound 3.16 µM
[6] = second compound 0.1 µM, first compound 10 µM
[7] = second compound 0.316 µM, first compound 0.0316 µM
[8] = second compound 0.316 µM, first compound 0.1 µM
[9] = second compound 0.316 µM, first compound 0.316 µM
[10] = second compound 0.316 µM, first compound 1 µM
[11] = second compound 0.316 µM, first compound 3.16 µM
[12] = second compound 0.316 µM, first compound 10 µM
[13] = second compound 1 µM, first compound 0.0316 µM
[14] = second compound 1 µM, first compound 0.1 µM
[15] = second compound 1 µM, first compound 0.316 µM
[16] = second compound 1 µM, first compound 1 µM
[17] = second compound 1 µM, first compound 3.16 µM
[18] = second compound 1 µM, first compound 10 µM
[19] = second compound 3.16 µM, first compound 0.0316 µM
[20] = second compound 3.16 µM, first compound 0.1 µM
[21] = second compound 3.16 µM, first compound 0.316 µM
[22] = second compound 3.16 µM, first compound 1 µM
[23] = second compound 3.16 µM, first compound 3.16 µM
[24] = second compound 3.16 µM, first compound 10 µM
[25] = second compound 10 µM, first compound 0.0316 µM
[26] = second compound 10 µM, first compound 0.1 µM
[27] = second compound 10 µM, first compound 0.316 µM
[28] = second compound 10 µM, first compound 1 µM
[29] = second compound 10 µM, first compound 3.16 µM
[30] = second compound 10 µM, first compound 10 µM
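Note: exposure lasted 7 days after dosing on day 3 of spheroid growth.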

CC1(C)CCC(CN2CCN(c3ccc(C(=O)NS(=O)(=O)c4ccc(NCC5CCOCC5)c([N+](=O)[O-])c4)c(Oc4cnc5[nH]ccc5c4)c3)CC2)=C(c2ccc(Cl)cc2)C1 + Cc1ccccc1N=Nc1ccc(NC(=O)c2ccnn2C)c(C)c1
IC50 (second compound 0.1 µM): > 10 µM
IC50 (second compound 0.316 µM): > 10 µM
IC50 (second compound 1 µM): > 10 µM
IC50 (second compound 3.16 µM): > 10 µM
IC50 (second compound 10 µM): > 10 µM
viability, T/C [1]: 97.5%
viability, T/C [2]: 90.6%
viability, T/C [3]: 97%
viability, T/C [4]: 99.9%
viability, T/C [5]: 88.5%
viability, T/C [6]: 61.4%
viability, T/C [7]: 95.5%
viability, T/C [8]: 85.9%
viability, T/C [9]: 88.9%
viability, T/C [10]: 85.3%
viability, T/C [11]: 83.9%
viability, T/C [12]: 54.9%
viability, T/C [13]: 97.8%
viability, T/C [14]: 85.4%
viability, T/C [15]: 82.5%
viability, T/C [16]: 80.2%
viability, T/C [17]: 79.7%
viability, T/C [18]: 67.1%
viability, T/C [19]: 85.7%
viability, T/C [20]: 82.6%
viability, T/C [21]: 87.4%
viability, T/C [22]: 84.8%
viability, T/C [23]: 76.5%
viability, T/C [24]: 57%
viability, T/C [25]: 81.9%
viability, T/C [26]: 85.1%
viability, T/C [27]: 82%
viability, T/C [28]: 77%
viability, T/C [29]: 74%
viability, T/C [30]: 54.7%

CCN(c1cc(-c2ccc(CN3CCOCC3)cc2)cc(C(=O)NCc2c(C)cc(C)[nH]c2=O)c1C)C1CCOCC1 + Cc1ccccc1N=Nc1ccc(NC(=O)c2ccnn2C)c(C)c1
IC50 (second compound 0.1 µM): > 3 µM
IC50 (second compound 0.316 µM): > 3 µM
IC50 (second compound 1 µM): > 3 µM
IC50 (second compound 3.16 µM): > 3 µM
IC50 (second compound 10 µM): > 3 µM
viability, T/C (second compound 0.1 µM, first compound 0.00949 µM): 88.3%
viability, T/C (second compound 0.1 µM, first compound 0.03 µM): 100%
viability, T/C (second compound 0.1 µM, first compound 0.0949 µM): 88.5%
viability, T/C (second compound 0.1 µM, first compound 0.3 µM): 91.7%
viability, T/C (second compound 0.1 µM, first compound 0.949 µM): 80.3%
viability, T/C (second compound 0.1 µM, first compound 3 µM): 84.3%
viability, T/C (second compound 0.316 µM, first compound 0.00949 µM): 83.3%
viability, T/C (second compound 0.316 µM, first compound 0.03 µM): 91.5%
viability, T/C (second compound 0.316 µM, first compound 0.0949 µM): 86.4%
viability, T/C (second compound 0.316 µM, first compound 0.3 µM): 85.3%
viability, T/C (second compound 0.316 µM, first compound 0.949 µM): 88.3%
viability, T/C (second compound 0.316 µM, first compound 3 µM): 86.1%
viability, T/C (second compound 1 µM, first compound 0.00949 µM): 80.7%
viability, T/C (second compound 1 µM, first compound 0.03 µM): 82.2%
viability, T/C (second compound 1 µM, first compound 0.0949 µM): 84%
viability, T/C (second compound 1 µM, first compound 0.3 µM): 78.3%
viability, T/C (second compound 1 µM, first compound 0.949 µM): 82.8%
viability, T/C (second compound 1 µM, first compound 3 µM): 96.4%
viability, T/C (second compound 3.16 µM, first compound 0.00949 µM): 75.8%
viability, T/C (second compound 3.16 µM, first compound 0.03 µM): 84.5%
viability, T/C (second compound 3.16 µM, first compound 0.0949 µM): 83.4%
viability, T/C (second compound 3.16 µM, first compound 0.3 µM): 85.5%
viability, T/C (second compound 3.16 µM, first compound 0.949 µM): 88.4%
viability, T/C (second compound 3.16 µM, first compound 3 µM): 79.2%
viability, T/C (second compound 10 µM, first compound 0.00949 µM): 80%
viability, T/C (second compound 10 µM, first compound 0.03 µM): 86.1%
viability, T/C (second compound 10 µM, first compound 0.0949 µM): 75.6%
viability, T/C (second compound 10 µM, first compound 0.3 µM): 75.2%
viability, T/C (second compound 10 µM, first compound 0.949 µM): 77.6%
viability, T/C (second compound 10 µM, first compound 3 µM): 81.4%

COc1cc(Nc2ncc3c(n2)-c2ccc(Cl)cc2C(c2c(F)cccc2OC)=NC3)ccc1C(=O)O + Cc1ccccc1N=Nc1ccc(NC(=O)c2ccnn2C)c(C)c1
IC50 (second compound 0.1 µM): > 10 µM
IC50 (second compound 0.316 µM): > 10 µM
IC50 (second compound 1 µM): > 10 µM
IC50 (second compound 3.16 µM): > 10 µM
IC50 (second compound 10 µM): > 10 µM
viability, T/C [1]: 83.3%
viability, T/C [2]: 78.7%
viability, T/C [3]: 74.5%
viability, T/C [4]: 63.2%
viability, T/C [5]: 71.1%
viability, T/C [6]: 63.6%
viability, T/C [7]: 72.7%
viability, T/C [8]: 83.1%
viability, T/C [9]: 64.6%
viability, T/C [10]: 62.6%
viability, T/C [11]: 66.3%
viability, T/C [12]: 63.2%
viability, T/C [13]: 73.9%
viability, T/C [14]: 73.7%
viability, T/C [15]: 67.2%
viability, T/C [16]: 72%
viability, T/C [17]: 63.7%
viability, T/C [18]: 53.7%
viability, T/C [19]: 67.4%
viability, T/C [20]: 76.3%
viability, T/C [21]: 69.6%
viability, T/C [22]: 62.1%
viability, T/C [23]: 67%
viability, T/C [24]: 56.4%
viability, T/C [25]: 68.9%
viability, T/C [26]: 67.7%
viability, T/C [27]: 67.8%
viability, T/C [28]: 61.3%
viability, T/C [29]: 58.7%
viability, T/C [30]: 50.8%

Cn1ncnc1C1c2n[nH]c(=O)c3cc(F)cc(c23)NC1c1ccc(F)cc1 (stereo not given) + Cc1ccccc1N=Nc1ccc(NC(=O)c2ccnn2C)c(C)c1
IC50 (second compound 0.1 µM): > 0.1 µM
IC50 (second compound 0.316 µM): > 0.1 µM
IC50 (second compound 1 µM): > 0.1 µM
IC50 (second compound 3.16 µM): > 0.1 µM
IC50 (second compound 10 µM): > 0.1 µM
viability, T/C (second compound 0.1 µM, first compound 0.000316 µM): 98.1%
viability, T/C (second compound 0.1 µM, first compound 0.001 µM): 97.5%
viability, T/C (second compound 0.1 µM, first compound 0.00316 µM): 92.7%
viability, T/C (second compound 0.1 µM, first compound 0.01 µM): 88.7%
viability, T/C [1]: 89.2%
viability, T/C [2]: 79.9%
viability, T/C (second compound 0.316 µM, first compound 0.000316 µM): 76.4%
viability, T/C (second compound 0.316 µM, first compound 0.001 µM): 85.7%
viability, T/C (second compound 0.316 µM, first compound 0.00316 µM): 82.7%
viability, T/C (second compound 0.316 µM, first compound 0.01 µM): 83.4%
viability, T/C [7]: 71.9%
viability, T/C [8]: 78.3%
viability, T/C (second compound 1 µM, first compound 0.000316 µM): 87.5%
viability, T/C (second compound 1 µM, first compound 0.001 µM): 87.1%
viability, T/C (second compound 1 µM, first compound 0.00316 µM): 86.1%
viability, T/C (second compound 1 µM, first compound 0.01 µM): 78.6%
viability, T/C [13]: 81%
viability, T/C [14]: 81.1%
viability, T/C (second compound 3.16 µM, first compound 0.000316 µM): 82%
viability, T/C (second compound 3.16 µM, first compound 0.001 µM): 80.1%
viability, T/C (second compound 3.16 µM, first compound 0.00316 µM): 78.4%
viability, T/C (second compound 3.16 µM, first compound 0.01 µM): 87.3%
viability, T/C [19]: 84.6%
viability, T/C [20]: 85.5%
viability, T/C (second compound 10 µM, first compound 0.000316 µM): 70.4%
viability, T/C (second compound 10 µM, first compound 0.001 µM): 98.1%
viability, T/C (second compound 10 µM, first compound 0.00316 µM): 75.8%
viability, T/C (second compound 10 µM, first compound 0.01 µM): 81.8%
viability, T/C [25]: 63.6%
viability, T/C [26]: 76%

NS(=O)(=O)OCC1CC(n2ccc3c(NC4CCc5ccccc54)ncnc32)CC1O (stereo not given) + Cc1ccccc1N=Nc1ccc(NC(=O)c2ccnn2C)c(C)c1
IC50 (second compound 0.1 µM): 2.5 µM
IC50 (second compound 0.316 µM): 2.35 µM
IC50 (second compound 1 µM): 2.48 µM
IC50 (second compound 3.16 µM): 2.48 µM
IC50 (second compound 10 µM): 2.69 µM
viability, T/C [1]: 143%
viability, T/C [2]: 184%
viability, T/C [3]: 253%
viability, T/C [4]: 137%
viability, T/C [5]: 37.4%
viability, T/C [6]: 18.3%
viability, T/C [7]: 131%
viability, T/C [8]: 173%
viability, T/C [9]: 240%
viability, T/C [10]: 119%
viability, T/C [11]: 30.9%
viability, T/C [12]: 20.6%
viability, T/C [13]: 127%
viability, T/C [14]: 156%
viability, T/C [15]: 256%
viability, T/C [16]: 125%
viability, T/C [17]: 39.3%
viability, T/C [18]: 20.9%
viability, T/C [19]: 121%
viability, T/C [20]: 146%
viability, T/C [21]: 233%
viability, T/C [22]: 128%
viability, T/C [23]: 37.4%
viability, T/C [24]: 18.5%
viability, T/C [25]: 118%
viability, T/C [26]: 179%
viability, T/C [27]: 210%
viability, T/C [28]: 125%
viability, T/C [29]: 43.6%
viability, T/C [30]: 17.4%

— PubChem BioAssay AID1919004 (Molecular Pharmacology Branch, DTP, NCI, 2023)
